Assay results as given in patent US20170204426A1, “MODIFIED BRASSICA PLANTS WITH INCREASED SEED OIL CONTENT” (BROOKHAVEN SCIENCE ASSOCIATES, LLC, priority 2014, published 2017).

Assays:
[1] = tested on: PPi-PFKs of Thermoproteus tenax, Naegleria fowleri, Methylococcus capsulatus or Amycolatopsis methanolica; details: Reshetnikov et al. 2008; Alves et al.; cited from earlier work
ATP-dependent PFK = assay: Allosteric effect of PEP on ATP-dependent PFK activity in oilseed rape embryo; type: biochemical, Brassica napus
AGPase = assay: Allosteric effect of 3-PGA on AGPase activity in oilseed rape embryo; type: biochemical, Brassica napus
Protocol: The intermediates PEP and 3-PGA are known to allosterically affect enzymatic activity of ATP-dependent PFK and AGPase, respectively.
[…] 500 μl of common extraction buffer [10% (v/v) glycerol, 0.25% (w/v) BSA, 0.1% (v/v) Triton X-100, 50 mM Hepes/KOH, pH 7.5, 10 mM MgCl2, 1 mM EDTA, 1 mM EGTA, 1 mM benzamidine, 1 mM ε-aminocapronic acid, 1 mM phenylmethylsulfonyl fluoride (PMSF), […], 1 mM dithiothreitol (DTT)] and c. 10 mg polyvinyl pyrrolidone. PMSF was added just before extraction. DTT was omitted when using peroxidase-based or MTT-based indicator reactions (MTT: methylthiazolyldiphenyl-tetrazolium bromide). A 96-head liquid handling robot (Evolution P3, Perkin Elmer, Wellesey, Mass., USA) was used to perform subsequent dilutions of these initial extracts and to load extracts on to 96-well micro plates. During this process micro plates were maintained at 4° C. using peltier cooled blocks. […] The concentration of the products of these stopped reactions (NAD+, NADH, NADPH or glycerol-3-phosphate) was then determined using cycling assays. […] Nitrate reductase and glutamine synthetase were determined using end point assays (Gibon et al, 2004, supra). […] After measuring PK activity at pH 8.0 and at pH 6.7, the plastidic and cytosolic activities were calculated accordingly.

Compound	inhibition of PPi-PFK by PEP [1]	effect on enzymatic activity of ATP-dependent PFK (ATP-dependent PFK)	effect on enzymatic activity of AGPase (AGPase)
C=C(OP(=O)(O)O)C(=O)O [PEP, phosphoenolpyruvate]	not inhibited	clear activity changes	
O=C(O)[C@H](O)COP(=O)(O)O [3-PGA, 3-phosphoglycerate]			clear activity changes
